Experimental data published in patent US11292796B2 (SIGNAL PHARMACEUTICALS, LLC, priority 2008, dated 2022).
pIC50: −log10 of the molar value.

Biological target: T1, mTOR (Homo sapiens, UniProt P42345)
T1 construct: purchased Invitrogen PR8683A
Test: mTOR HTR-FRET assay
Type: biochemical
Settings: read-out: Act. Level (IC50 in mTor HTR-FRET assay)
How it was run: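 Test compounds, taken from 10 mM DMSO stocks and diluted, were mixed with mTOR enzyme (0.200 μg/mL) in Tris buffer pH 7.4 with 100 mM NaCl, 0.1% Tween-20 and 1 mM DTT. ATP/substrate addition initiated the reaction, alongside compound-free controls.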

T1 sequence (P42345 1360-2549 limits assumed): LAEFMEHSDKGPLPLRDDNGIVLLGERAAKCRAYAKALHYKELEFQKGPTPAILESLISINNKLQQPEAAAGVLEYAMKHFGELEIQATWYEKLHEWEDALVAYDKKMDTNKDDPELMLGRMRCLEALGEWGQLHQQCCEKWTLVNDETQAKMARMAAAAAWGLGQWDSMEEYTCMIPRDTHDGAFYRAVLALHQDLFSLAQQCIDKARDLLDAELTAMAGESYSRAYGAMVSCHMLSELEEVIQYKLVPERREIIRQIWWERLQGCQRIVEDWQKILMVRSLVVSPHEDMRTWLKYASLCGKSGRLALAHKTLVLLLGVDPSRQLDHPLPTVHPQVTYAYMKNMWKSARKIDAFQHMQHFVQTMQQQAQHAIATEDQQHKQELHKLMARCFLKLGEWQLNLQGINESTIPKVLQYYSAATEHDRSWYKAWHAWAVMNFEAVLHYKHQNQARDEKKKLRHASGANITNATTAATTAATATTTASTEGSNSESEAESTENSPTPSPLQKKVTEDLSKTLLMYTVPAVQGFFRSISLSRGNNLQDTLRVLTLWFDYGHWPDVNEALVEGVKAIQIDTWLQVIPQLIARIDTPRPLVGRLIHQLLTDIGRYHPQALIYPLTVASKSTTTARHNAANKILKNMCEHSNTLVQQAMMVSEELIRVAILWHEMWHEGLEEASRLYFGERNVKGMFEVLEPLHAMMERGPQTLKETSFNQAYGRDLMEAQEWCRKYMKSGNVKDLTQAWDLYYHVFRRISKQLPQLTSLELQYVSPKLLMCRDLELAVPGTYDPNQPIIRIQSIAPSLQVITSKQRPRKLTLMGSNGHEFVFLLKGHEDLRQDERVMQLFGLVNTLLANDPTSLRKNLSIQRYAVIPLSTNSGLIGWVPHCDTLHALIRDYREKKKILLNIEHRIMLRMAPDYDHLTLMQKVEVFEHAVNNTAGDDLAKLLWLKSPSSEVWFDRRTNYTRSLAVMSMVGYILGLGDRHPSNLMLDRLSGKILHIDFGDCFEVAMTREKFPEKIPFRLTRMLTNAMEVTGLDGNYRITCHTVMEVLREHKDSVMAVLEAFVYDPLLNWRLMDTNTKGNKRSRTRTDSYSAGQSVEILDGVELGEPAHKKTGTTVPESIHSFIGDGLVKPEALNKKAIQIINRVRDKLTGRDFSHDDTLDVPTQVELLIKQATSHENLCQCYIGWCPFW

| SMILES | pIC50 |
| --- | --- |
| COCCN1CC(=O)Nc2ncc(-c3ccc(-c4nnc[nH]4)c(F)c3C)nc21 [Example 49, 6-(3-fluoro-2-methyl-4-(4H-1,2,4-triazol-3-yl)phenyl)-4-(2-methoxyethyl)-3,4-dihydropyrazino[2,3-b]pyrazin-2(1H)-one] | 6.60 to 11.30 |
| CO[C@H]1CC[C@@H](CN2C(=O)CNc3ncc(-c4cc(F)c(-c5nc[nH]n5)cc4C)nc32)CC1 [Example 153, 7-(5-fluoro-2-methyl-4-(1H-1,2,4-triazol-3-yl)phenyl)-1-((cis-4-methoxycyclohexyl)methyl)-3,4-dihydropyrazino[2,3-b]pyrazin-2(1H)-one] | 6.60 to 11.30 |
| O=C1CNc2ncc(-c3ccnc4[nH]ccc34)nc2N1CCC1CCOCC1 [Example 157, 7-(1H-pyrrolo[2,3-b]pyridin-4-yl)-1-(2-(tetrahydro-2H-pyran-4-yl)ethyl)-3,4-dihydropyrazino[2,3-b]pyrazin-2(1H)-one] | 6.60 to 11.30 |
| Cc1cc(-c2cnc3c(n2)N(CC2CCOCC2)C(=O)CN3)cc2[nH]c(N)nc12 [Example 264, 7-(2-amino-4-methyl-1H-benzo[d]imidazol-6-yl)-1-((tetrahydro-2H-pyran-4-yl)methyl)-3,4-dihydropyrazino[2,3-b]pyrazin-2(1H)-one] | 6.60 to 11.30 |
| Cc1cc(-c2nnc[nH]2)ccc1-c1cnc2c(n1)N(CCC1CCOCC1)C(C)(C)C(=O)N2 [Example 84, 3,3-dimethyl-6-(2-methyl-4-(4H-1,2,4-triazol-3-yl)phenyl)-4-(2-(tetrahydro-2H-pyran-4-yl)ethyl)-3,4-dihydropyrazino[2,3-b]pyrazin-2(1H)-one] | 6.60 to 11.30 |
| Cc1cc(-c2nnc[nH]2)c(F)cc1-c1cnc2c(n1)N(CCC1CCOCC1)C(=O)CN2 [Example 247, 7-(5-fluoro-2-methyl-4-(4H-1,2,4-triazol-3-yl)phenyl)-1-(2-(tetrahydro-2H-pyran-4-yl)ethyl)-3,4-dihydropyrazino[2,3-b]pyrazin-2(1H)-one] | 6.60 to 11.30 |
| COCCN1C(=O)CNc2ncc(-c3cc(F)c(-c4nc[nH]n4)cc3C)nc21 [Example 175, 7-(5-fluoro-2-methyl-4-(1H-1,2,4-triazol-3-yl)phenyl)-1-(2-methoxyethyl)-3,4-dihydropyrazino[2,3-b]pyrazin-2(1H)-one] | 6.60 to 11.30 |
| COCCN1CC(=O)Nc2ncc(-c3cnc(-c4nc[nH]n4)cc3C)nc21 [Example 30, 4-(2-methoxyethyl)-6-(4-methyl-6-(1H-1,2,4-triazol-3-yl)pyridin-3-yl)-3,4-dihydropyrazino[2,3-b]pyrazin-2(1H)-one] | 6.60 to 11.30 |
| CO[C@@H]1CC[C@@H](N2CC(=O)Nc3ncc(-c4ccc(C(C)(C)O)nc4)nc32)C1 [Example 56, 6-(6-(2-hydroxypropan-2-yl)pyridin-3-yl)-4-((1R,3R)-3-methoxycyclopentyl)-3,4-dihydropyrazino[2,3-b]pyrazin-2(1H)-one] | 6.60 to 11.30 |
| C[C@@H]1Nc2ncc(-c3ccc(C(C)(C)O)nc3)nc2N(CCC2CCOCC2)C1=O [Example 267, (S)-7-(6-(2-hydroxypropan-2-yl)pyridin-3-yl)-3-methyl-1-(2-(tetrahydro-2H-pyran-4-yl)ethyl)-3,4-dihydropyrazino[2,3-b]pyrazin-2(1H)-one] | 6.00 to 6.30 |
| C[C@H]1C(=O)Nc2ncc(-c3ccc(C(C)(C)O)nc3)nc2N1CCC1CCOCC1 [Example 132, (S)-6-(6-(2-hydroxypropan-2-yl)pyridin-3-yl)-3-methyl-4-(2-(tetrahydro-2H-pyran-4-yl)ethyl)-3,4-dihydropyrazino[2,3-b]pyrazin-2(1H)-one] | 6.60 to 11.30 |
| Cc1cc(-c2nnc[nH]2)ccc1-c1cnc2c(n1)NC(C)(C)C(=O)N2 [Example 79, 3,3-dimethyl-6-(2-methyl-4-(4H-1,2,4-triazol-3-yl)phenyl)-3,4-dihydropyrazino[2,3-b]pyrazin-2(1H)-one] | 6.30 to 6.60 |
| CC(C)(C)CN1CC(=O)Nc2ncc(-c3ccc(C(C)(C)O)nc3)nc21 [Example 105, 6-(6-(2-hydroxypropan-2-yl)pyridin-3-yl)-4-neopentyl-3,4-dihydropyrazino[2,3-b]pyrazin-2(1H)-one] | 6.30 to 6.60 |
| CO[C@H]1CC[C@H](N2CC(=O)Nc3ncc(-c4cnc(C(N)=O)cc4C)nc32)CC1 [Example 35, 5-(S-(trans-4-methoxycyclohexyl)-6-oxo-5,6,7,8-tetrahydropyrazino[2,3-b]pyrazin-2-yl)-4-methylpicolinamide] | 6.60 to 11.30 |
| O=C1CNc2ncc(-c3cccc4[nH]ccc34)nc2N1CCC1CCOCC1 [Example 167, 7-(1H-indol-4-yl)-1-(2-(tetrahydro-2H-pyran-4-yl)ethyl)-3,4-dihydropyrazino[2,3-b]pyrazin-2(1H)-one] | 6.30 to 6.60 |
| O=C1CN(CC2CCOCC2)c2nc(-c3ccc(-c4nnc[nH]4)cc3)cnc2N1 [Example 142, 6-(4-(4H-1,2,4-triazol-3-yl)phenyl)-4-((tetrahydro-2H-pyran-4-yl)methyl)-3,4-dihydropyrazino[2,3-b]pyrazin-2(1H)-one] | 6.60 to 11.30 |
| COCCN1C(=O)CNc2ncc(-c3cnc4[nH]ccc4c3)nc21 [Example 192, 1-(2-methoxyethyl)-7-(1H-pyrrolo[2,3-b]pyridin-5-yl)-3,4-dihydropyrazino[2,3-b]pyrazin-2(1H)-one] | 6.60 to 11.30 |

| SMILES | pIC50 |
| --- | --- |
| CC(C)CN1CC(=O)Nc2ncc(-c3ccc(C(C)(C)O)nc3)nc21 [Example 106, 6-(6-(2-hydroxypropan-2-yl)pyridin-3-yl)-4-isobutyl-3,4-dihydropyrazino[2,3-b]pyrazin-2(1H)-one] | 6.00 to 6.30 |
| O=C1CNc2ncc(-c3ccc4[nH]ncc4c3)nc2N1CCC1CCOCC1 [Example 223, 7-(1H-indazol-5-yl)-1-(2-(tetrahydro-2H-pyran-4-yl)ethyl)-3,4-dihydropyrazino[2,3-b]pyrazin-2(1H)-one] | 6.00 to 6.30 |
| O=C1CN(CCC2CCOCC2)c2nc(-c3cnc4[nH]ccc4c3)cnc2N1 [Example 43, 6-(1H-pyrrolo[2,3-b]pyridin-5-yl)-4-(2-(tetrahydro-2H-pyran-4-yl)ethyl)-3,4-dihydropyrazino[2,3-b]pyrazin-2(1H)-one] | 6.60 to 11.30 |
| CCN1c2nc(-c3ccc(-c4nnc[nH]4)cc3C)cnc2NC(=O)C1(C)C [Example 72, 4-ethyl-3,3-dimethyl-6-(2-methyl-4-(4H-1,2,4-triazol-3-yl)phenyl)-3,4-dihydropyrazino[2,3-b]pyrazin-2(1H)-one] | 6.60 to 11.30 |
| COCCN1c2nc(-c3ccc(-c4nnc[nH]4)cc3C)cnc2NC(=O)C1(C)C [Example 71, 4-(2-methoxyethyl)-3,3-dimethyl-6-(2-methyl-4-(4H-1,2,4-triazol-3-yl)phenyl)-3,4-dihydropyrazino[2,3-b]pyrazin-2(1H)-one] | 6.60 to 11.30 |
| O=C1CNc2ncc(-c3ccc(-c4nc[nH]n4)nc3)nc2N1C[C@H]1CC[C@@H](O)CC1 [Example 169, 7-(6-(1H-1,2,4-triazol-3-yl)pyridin-3-yl)-1-((cis-4-hydroxycyclohexyl)methyl)-3,4-dihydropyrazino[2,3-b]pyrazin-2(1H)-one] | 6.60 to 11.30 |
| Cc1cc(-c2nnc[nH]2)ccc1-c1cnc2c(n1)N(Cc1ccccc1)C(=O)CN2 [Example 241, 1-benzyl-7-(2-methyl-4-(4H-1,2,4-triazol-3-yl)phenyl)-3,4-dihydropyrazino[2,3-b]pyrazin-2(1H)-one] | 6.60 to 11.30 |
| O=C1CN(CCC2CCOCC2)c2nc(-c3ccc4[nH]ncc4c3)cnc2N1 [Example 69, 6-(1H-indazol-5-yl)-4-(2-(tetrahydro-2H-pyran-4-yl)ethyl)-3,4-dihydropyrazino[2,3-b]pyrazin-2(1H)-one] | 6.30 to 6.60 |
| Cc1cc(-c2nc[nH]n2)c(F)cc1-c1cnc2c(n1)N(C(C)C)C(=O)CN2 [Example 176, 7-(5-fluoro-2-methyl-4-(1H-1,2,4-triazol-3-yl)phenyl)-1-isopropyl-3,4-dihydropyrazino[2,3-b]pyrazin-2(1H)-one] | 6.60 to 11.30 |
| NC(=O)c1ccc(-c2cnc3c(n2)N(CCC2CCOCC2)CC(=O)N3)cc1 [Example 70, 4-(6-oxo-8-(2-(tetrahydro-2H-pyran-4-yl)ethyl)-5,6,7,8-tetrahydropyrazino[2,3-b]pyrazin-2-yl)benzamide] | 5.00 to 6.00 |
| CO[C@@H]1CC[C@@H](N2C(=O)CNc3ncc(-c4ccc(C(C)(C)O)nc4)nc32)C1 [Example 208, 7-(6-(2-hydroxypropan-2-yl)pyridin-3-yl)-1-((1R,3R)-3-methoxycyclopentyl)-3,4-dihydropyrazino[2,3-b]pyrazin-2(1H)-one] | 6.60 to 11.30 |
| Cc1cc(-c2nnc[nH]2)ccc1-c1cnc2c(n1)N(CC1CCOCC1)C1(CCCC1)C(=O)N2 [Example 61, 7′-(2-methyl-4-(4H-1,2,4-triazol-3-yl)phenyl)-1′-((tetrahydro-2H-pyran-4-yl)methyl)-1′H-spiro[cyclopentane-1,2′-pyrazino[2,3-b]pyrazin]-3′(4′H)-one] | 6.60 to 11.30 |
| CC(C)(O)c1ccc(-c2cnc3c(n2)N(CCC2CCCOC2)CC(=O)N3)cn1 (stereo not drawn) [Example 109, 6-(6-(2-hydroxypropan-2-yl)pyridin-3-yl)-4-(2-(tetrahydro-2H-pyran-3-yl)ethyl)-3,4-dihydropyrazino[2,3-b]pyrazin-2(1H)-one] | 6.60 to 11.30 |
| Cc1cc(C(N)=O)ncc1-c1cnc2c(n1)N(CC1CCOCC1)C(=O)CN2 [Example 199, 4-methyl-5-(7-oxo-8-((tetrahydro-2H-pyran-4-yl)methyl)-5,6,7,8-tetrahydropyrazino[2,3-b]pyrazin-2-yl)picolinamide] | 5.00 to 6.00 |
| O=C1CNc2ncc(-c3ccc(O)nc3)nc2N1CCC1CCOCC1 [Example 185, 7-(6-hydroxypyridin-3-yl)-1-(2-(tetrahydro-2H-pyran-4-yl)ethyl)-3,4-dihydropyrazino[2,3-b]pyrazin-2(1H)-one] | 5.00 to 6.00 |
| CC(C)(O)c1ccc(-c2cnc3c(n2)N(C[C@H]2CCCO2)CC(=O)N3)cn1 [Example 116, (R)-6-(6-(2-hydroxypropan-2-yl)pyridin-3-yl)-4-((tetrahydrofuran-2-yl)methyl)-3,4-dihydropyrazino[2,3-b]pyrazin-2(1H)-one] | 6.00 to 6.30 |
